# Measurements: patent publication US10647665B2, “Biaryl urea derivative or salt thereof and preparation process and use for the same” (Fudan University, priority 2016, dated 2020)
# Tests used:
# [1] = target: RORγ receptor (B-RORγ LBD) (Homo sapiens (Human), UniProt P51449); assay: Inhibitory activity on RORγ receptor in vitro by fluorescence resonance energy transfer (FRET); assay type: biochemical; conditions: average of at least two independent tests
# Method: The inhibitory activity of compounds on RORγ receptor was determined by fluorescence resonance energy transfer (FRET) experiments. The inhibitory activity was expressed by half-inhibitory concentration (IC50).
# 1. Preparation of RORγ Buffer Solution
# 10 mL of DTT and 100 mL buffer solution were gently mixed together and ready to use.
# 2. Preparation of Compound Solution
# (§1) 3. Preparation of Protein Mixture a. 40 nM B-RORγ LBD solution and 20 nM SA-APC solution were gently mixed together. The reaction mixture was incubated for 15 minutes at room temperature. Then 400 nM Biotin was added to the described above mixture. After gently mixed together, the resulting mixture was incubated for 10 minutes at room temperature. […]
# as §1, with “b.” for “3. Preparation of Protein Mixture a.”, “Bioin-SRC1” for “B-RORγ LBD”, “10” for “20”, “SA-eu” for “SA-APC”, “together, and the” for “together. The”, “200” for “400”
# d. A mixture of 0.1 μM alternative agonist
# N-(2-chloro-6-fluorophenyl)-N-((20-methoxy-[1,10-biphenylyl]-4-substituted)methyl)benzenesulfonamide, 25 μL B-RORγ LBD/SA-APC and Bioin-SRC1/SA-eu mixture solution with test compound were added to one of the well of a 384-well plate, then they were centrifuged for 1 minute at 1000 rpm, and incubated at room temperature for 1 hour. The values were read on the Envision microplate detector and IC50 was calculated.
# [2] = tested on: Mouse Th17 cell differentiation; assay: Inhibition of mouse Th17 cell differentiation (IL-17 by intracellular staining and flow cytometry); assay type: cell-based; conditions: compound at 0.3 μM, mouse spleen CD4+ T cells, 96 hours
# Method: Experimental method: Mouse spleen CD4^+ T cells were isolated and differentiated into Th17 cells. CD4^+ T cells were cultured in the environment of anti-CD3 (0.25 μg/mL), anti-CD28 (1 μg/mL), anti-IL4 (2 μg/mL), anti-IFN-γ (2 μg/mL), TGF-β (5 ng/mL), and IL6 (20 ng/mL), and then the test compound was added. After 96 hours, the differentiation efficiency of Th17 was analyzed. Before collection of cells, PMA at 50 ng/mL and ionomycin at 500 ng/mL were added for stimulation for 4 hours, and the ratio of IL-17 was detected by intracellular staining and flow cytometry. At the same time, we used Live/Dead Cell Dye (Invitrogen) staining method to analyze the cell survival rate, to judge whether the drug had toxicity to cells, and determine the inhibition rate of the compound at a concentration of 0.3 μM on IL-17 differentiation by Th 17 cells.
# RORγ receptor (B-RORγ LBD), sequence (P51449 269-508): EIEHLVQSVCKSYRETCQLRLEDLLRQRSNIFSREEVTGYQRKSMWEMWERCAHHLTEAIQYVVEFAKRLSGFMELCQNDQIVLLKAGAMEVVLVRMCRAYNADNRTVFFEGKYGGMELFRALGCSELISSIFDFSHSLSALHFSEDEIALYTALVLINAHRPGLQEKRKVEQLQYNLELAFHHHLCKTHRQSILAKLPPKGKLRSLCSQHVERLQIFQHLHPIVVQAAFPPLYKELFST
IC50 [1] [nM],SMILES,inhibition at 0.3 µM [2] [%]
< 500,"Cc1cc(CC(=O)O)ccc1CNC(=O)Nc1cc(Cl)c(-c2ccccc2OC(F)(F)F)c(Cl)c1 [Example 1-34, 3-(4-((3-(2,6-dichloro-2′-(trifluoromethoxy)-[1,1′-biphenyl]-4-yl)ureido)methyl)-3-methylphenyl)acetic acid]",–
< 500,"Cc1cc(NC(=O)NCc2ccc(CC(=O)O)cc2)cc(Cl)c1-c1ccccc1OC(F)(F)F [Example 1-17, 2-(4-((3-(2-chloro-6-methyl-2′-(trifluoromethoxy)-[1,1′-biphenyl]-4-yl)ureido)methyl)phenyl)acetic acid]",70 to 100
500 to 5000,"CCS(=O)(=O)c1ccc(CNC(=O)Nc2ccc(-c3ccccc3OC(F)(F)F)c(Cl)c2)cc1 [Example 1-3, 1-(2-chloro-2′-(trifluoromethoxy)-[1,1′-biphenyl]-4-yl)-3-(4-(ethylsulfonyl)benzyl)urea]",40 to 70
< 500,"O=C(NCc1ccc(C(O)C(=O)O)cc1)Nc1cc(Cl)c(-c2ccccc2OC(F)(F)F)c(Cl)c1 (stereo not shown) [Example 1-37, 2-(4-((3-(2,6-dichloro-2′-(trifluoromethoxy)-[1,1′-biphenyl]-4-yl)ureido)methyl)phenyl)-2-hydroxyacetic acid]",–
500 to 5000,"O=C(NCc1ccc(C(=O)O)cc1)Nc1cc(Cl)c(-c2ccccc2OC(F)(F)F)c(Cl)c1 [Example 1-14, 4-((3-(2,6-dichloro-2′-(trifluoromethoxy)-[1,1′-biphenyl]-4-yl)ureido)methyl)benzoic acid]",0 to 40
500 to 5000,"O=C(O)CCc1ccc(CNC(=O)Nc2cc(Cl)c(-c3ccccc3OC(F)(F)F)c(Cl)c2)cc1 [Example 1-36, 3-(4-((3-(2,6-dichloro-2′-(trifluoromethoxy)-[1,1′-biphenyl]-4-yl)ureido)methyl)phenyl)propanoic acid]",–
< 500,"CCS(=N)(=O)c1ccc(CNC(=O)Nc2cc(Cl)c(-c3ccccc3OC(F)(F)F)c(Cl)c2)cc1 (stereo not shown) [Example 1-9, 1-(2,6-dichloro-2′-(trifluoromethoxv)-[1,1′-biphenyl]-4-yl)-3-(4-(ethylsulfonimidoyl)benzyl)urea]",–
< 500,"CCS(=O)(=O)c1ccc(CNC(=O)Nc2cc(Cl)c(-c3ccccc3OC(F)(F)F)c(Cl)c2)nc1 [Example 1-11, 1-(2,6-dichloro-2′-(trifluoromethoxy)-[1,1′-biphenyl]-4-yl)-3-((5-(ethylsulfonyl)pyridine-2-yl)methyl)urea]",–
< 500,"NS(=O)(=O)c1ccc(CNC(=O)Nc2cc(Cl)c(-c3ccccc3OC(F)(F)F)c(Cl)c2)cc1 [Example 1-6, 4-((3-(2,6-dichloro-2′-(trifluoromethoxy)-[1,1′-biphenyl]-4-yl)ureido)methyl)benzenesulfonamide]",40 to 70
< 500,"CNS(=O)(=O)c1ccc(CNC(=O)Nc2cc(Cl)c(-c3ccccc3OC(F)(F)F)c(Cl)c2)nc1 [Example 1-13, 6-((3-(2,6-dichloro-2′-(trifluoromethoxy)-[1,1′-biphenyl]-4-yl)ureido)methyl)-N-methylpyridine-3-sulfonamide]",–
500 to 5000,"CC(C(=O)O)c1ccc(CNC(=O)Nc2cc(Cl)c(-c3ccccc3OC(F)(F)F)c(Cl)c2)cc1 (stereo not shown) [Example 1-24, 2-(4-((3-(2,6-dichloro-2′-(trifluoromethoxy)-[1,1′-biphenyl]-4-yl)ureido)methyl)phenyl)propanoic acid]",–
< 500,"O=C(NCc1ccc(C(F)C(=O)O)cc1)Nc1cc(Cl)c(-c2ccccc2OC(F)(F)F)c(Cl)c1 (stereo not shown) [Example 1-38, 2-(4-((3-(2,6-dichloro-2′-(trifluoromethoxy)-[1,1′-biphenyl]-4-yl)ureido)methyl)phenyl)-2-fluoroacetic acid]",–
500 to 5000,"Cc1cc(CNC(=O)Nc2cc(Cl)c(-c3ccccc3OC(F)(F)F)c(Cl)c2)ccc1CC(=O)O [Example 1-31, 3-(4-((3-(2,6-dichloro-2′-(trifluoromethoxy)-[1,1′-biphenyl]-4-yl)ureido)methyl)-2-methylphenyl)acetic acid]",–
< 500,"CS(=O)(=O)c1ccc(CNC(=O)Nc2cc(Cl)c(-c3ccccc3OC(F)(F)F)c(Cl)c2)nc1 [Example 1-12, 1-(2,6-dichloro-2′-(trifluoromethoxy)-[1,1′-biphenyl]-4-yl)-3-((5-(methylsulfonyl)pyridine-2-yl)methyl)urea]",–

# More lines, now with the values behind:
SMILES,IC50 [1] [nM],inhibition at 0.3 µM [2] [%]
"CCS(=O)(=O)c1ccc(CNC(=O)Nc2cc(Cl)c(-c3ccccc3OC(F)(F)F)c(Cl)c2)cc1 [Example I-1, 1-(2,6-dichloro-2′-(trifluoromethoxy)-[1,1′-biphenyl]-4-yl)-3-(4-(ethylsulfonyl)benzyl)urea]",–,70 to 100
"O=C(O)Cc1ccc(CNC(=O)Nc2ccc(-c3ccccc3)cc2)cc1 [Example 1-23, 2-(4-((3-([1,1′-biphenyl]-4-yl)ureido)methyl)phenyl)acetic acid]",5000 to 50000,0 to 40
"CN(Cc1ccc(CC(=O)O)cc1)C(=O)Nc1cc(Cl)c(-c2ccccc2OC(F)(F)F)c(Cl)c1 [Example 1-28, 2-(4-((3-(2,6-dichloro-2′-(trifluoromethoxy)-[1,1′-biphenyl]-4-yl)-1-methylureido)methyl)phenyl)acetic acid]",500 to 5000,–
"O=C(O)Cc1ccc(CNC(=O)Nc2cc(Cl)c(-c3ccccc3OC(F)F)c(Cl)c2)cc1 [Example 1-20, 2-(4-((3-(2,6-dichloro-2′-(difluoromethoxy)-[1,1′-biphenyl]-4-yl)ureido)methyl)phenyl)acetic acid]",< 500,0 to 40
"O=C(O)Cc1ccc(CNC(=O)Nc2ccc(-c3ccccc3OC(F)(F)F)c(Cl)c2)cc1 [Example 1-18, 2-(4-((3-(2-chloro-2′-(trifluoromethoxv)-[1,1′-biphenyl]-4-yl)ureido)methyl)phenyl)acetic acid]",500 to 5000,0 to 40
"CN(C(=O)NCc1ccc(CC(=O)O)cc1)c1cc(Cl)c(-c2ccccc2OC(F)(F)F)c(Cl)c1 [Example 1-27, 2-(4-((3-(2,6-dichloro-2′-(trifluoromethoxy)-[1,1′-biphenyl]-4-yl)-3-methylureido)methyl)phenyl)acetic acid]",500 to 5000,–
"O=C(O)Cc1ccc(CNC(=O)Nc2cc(F)c(-c3ccccc3OC(F)(F)F)c(F)c2)cc1 [Example 1-19, 2-(4-((3-(2,6-difluoro-2′-(trifluoromethoxy)-[1,1′-biphenyl]-4-yl)ureido)methyl)phenyl)acetic acid]",500 to 5000,0 to 40
"Cn1cc(-c2cccc(OC(F)(F)F)c2-c2ccc(NC(=O)NCc3ccc(CC(=O)O)cc3)cc2)cn1 [Example 1-22b, 2-(4-((3-(2′-(1-methyl-1H-pyrazol-4-yl)-6′-(trifluoromethoxy)-[1,1′-biphenyl]-4-yl)ureido)methyl)phenyl)acetic acid]",500 to 5000,0 to 40
"O=C(O)Cc1ccc(CNC(=O)Nc2cc(Cl)c(-c3ccccc3OC(F)(F)F)c(Cl)c2)cc1 [Example 1-15, 2-(4-((3-(2,6-dichloro-2′-(trifluoromethoxy)-[1,1′-biphenyl]-4-yl)ureido)methyl)phenyl)acetic acid]",–,70 to 100
"Cc1cc(NC(=O)NCc2ccc(CC(=O)O)cc2)cc(C)c1-c1ccccc1OC(F)F [Example 1-21, 2-(4-((3-(2′-(difluoromethoxy)-2,6-dimethyl-[1,1′-biphenyl]-4-yl)ureido)methyl)phenyl)acetic acid]",< 500,0 to 40
"N#Cc1cc(NC(=O)NCc2ccc(CC(=O)O)cc2)cc(Cl)c1-c1ccccc1OC(F)(F)F [Example 1-16, 2-(4-((3-(2-chloro-6-cyano-2′-(trifluoromethoxy)-[1,1′-biphenyl]-4-yl)ureido)methyl)phenyl)acetic acid]",< 500,0 to 40
"CCS(=O)(=O)c1ccc(CNC(=O)Nc2ccc(-c3ccccc3)cc2)cc1 [Example 1-2, 1-([1,1′-biphenyl]-4-yl)-3-(4-(ethylsulfonyl)benzyl)urea]",5000 to 50000,0 to 40
"CC(C(=O)O)c1ccc(CNC(=O)Nc2cc(Cl)c(-c3ccccc3OC(F)(F)F)c(Cl)c2)nc1 (stereo not shown) [Example 1-30, 2-(6-((3-(2,6-dichloro-2′-(trifluoromethoxy)-[1,1′-biphenyl]-4-yl)ureido)methyl)pyridin-3-yl)propanoic acid]",500 to 5000,–
"O=C(O)COc1ccc(CNC(=O)Nc2cc(Cl)c(-c3ccccc3OC(F)(F)F)c(Cl)c2)cc1 [Example 1-26, 2-(4-((3-(2,6-dichloro-2′-(trifluoromethoxy)-[1,1′-biphenyl]-4-yl)ureido)methyl)phenoxy)acetic acid]",–,0 to 40
